# Results taken from patent US20080051332A1, “METHOD OF MODULATING HEMATOPOIETIC STEM CELLS AND TREATING HEMATOLOGIC DISEASES USING INTRANASAL PARATHYROID HORMONE” (Nastech Pharmaceutical Company Inc., priority 2005, published 2008).
# “Also recorded” adds a separate entry of the source. Read-outs that look alike come from different tables or passages of the source. Ends that are not written are not given here.
# Experiments:
# ciliary motility = settings: pyo compound without obvious ultrastructural lesions; phenazine derivative with some membrane disruption; cited from earlier work
# [1] = 100 μg/day by injection, preliminary results; cited from earlier work
# hematopoietic stem cells = settings: mice, Calvi et al. 2003; cited from earlier work
# [2] = system: normal, human-derived tracheal/bronchial epithelial cells (EpiAirway™ Tissue Model); format: in vitro ADME
# Protocol: (§1) The effect of various “Generally Regarded As Safe” (GRAS) permeation enhancers was measured in a MatTek cell model. Three GRAS permeation enhancers (EDTA, ethanol, Tween 80) were evaluated individually or in combination with one another. Sorbitol was used as a tonicifier to adjust the osmolarity of formulations to 220 mOsm/kg whenever applicable. The formulation pH was adjusted to 4. The permeation enhancer combination of 45 mg/ml M-β-CD, 1 mg/ml DDPC, and 1 mg/ml EDTA at pH 4.5 served as the positive control. The formulation contains sorbitol only was used as the negative control. Each formulation is evaluated in the presence and absence of preservative. For all formulations, sodium benzoate is used as the preservative.
# (§2) The cell line MatTek Corp. (Ashland, Mass.) are normal, human-derived tracheal/bronchial epithelial cells (EpiAirway™ Tissue Model). Cells are cultured for 24-48 hours before use to produce a tissue insert.
# Each tissue insert is placed in an individual well containing 1 ml media. On the apical surface of the inserts, 100 μl of test formulation is applied, and the sample is shaken for 1 h at 37° C. […] Transepithelial electrical resistance (TER) is measured before and after the 1-h incubation. Following the incubation, the cell inserts are analyzed for cell viability via the mitochondrial dehydrogenase (MDH) assay. […]
# Human chondrocytes = assay: Alginate-based cartilage growth model, type II collagen production; format: cell-based
# Protocol: Next, the alginate-based cell system (cartilage growth model) was used to determine whether PTH dosing could stimulate chondrocytes to produce cartilage. […] Type II collagen is a major component of the extracellular matrix of nasal cartilage and therefore was used as a molecular marker for cartilage growth in this assay.
# The cell-containing alginate beads were incubated in the presence of various test solutions for 12 days at 37° C., 5% CO2. After the incubation, the alginate beads were processed using an extraction method in order to quantify the production of type II collagen.
# The effect of PTH on Type II collagen production was studied. The positive control in this study was re-differentiation media and the negative control was growth media. PTH was tested in a range of 20 μg to 200 μg as FORSTEO or a formulation containing the formulation enhancers (sample 1, above).
# In addition, type II collagen production was assessed in the presence of a formulation containing 5 μg of insulin-like growth factor I (IGF-I). IGF-I is known to be a potent promoter of cartilage type-II collagen expression in chondrocytes and thus is an ideal positive control for the assay.
# [3] = system: human chondrocyte cell monolayer; assay: Human chondrocyte monolayer proliferation (MTT); format: cell-based; settings: MTT at t=0 and after 4 days at 37° C./5% CO2
# Excerpt: A human chondrocyte cell monolayer model was employed to examine cell proliferation in the presence of PTH in a simple formulation (FORSTEO) or a formulation containing PTH and the formulation enhancers (sample 1, above). These were compared to a positive control (media containing antibiotics, insulin, TGF-beta and IGF-1) and negative control (media devoid of any cell growth components). It was desired to understand if the presence of PTH could stimulate chondrocyte growth. To this end, the above mentioned formulations and controls were applied to the apical side of the chondrocyte monolayers, and the MTT assay (Example 3) was conducted at t=0 and then after 4 days incubation at 37° C./5% CO2.
# [4] = after feeding to rats; cited from earlier work
# [5] = system: normal, human-derived tracheal/bronchial epithelial cells (EpiAirway™ Tissue Model); assay: Cell viability, MTT assay, EpiAirway tissue inserts; format: cell-based; settings: after 1 h incubation with formulation
# Protocol: as §1, §2
# (§3) Each tissue insert is placed in an individual well containing 1 ml media. […] Transepithelial electrical resistance (TER) is measured before and after the 1-h incubation. Following the incubation, the cell inserts are analyzed for cell viability via the mitochondrial dehydrogenase (MDH) assay.
# Cell viability is assessed using the MTT assay (MTT-100, MatTek kit). […] The optical density of the samples was measured at 550 nm on a plate reader.
# [6] = system: normal, human-derived tracheal/bronchial epithelial cells (EpiAirway™ Tissue Model); assay: Cytotoxicity, LDH assay, EpiAirway tissue inserts; format: cell-based; settings: after 1 h incubation with formulation
# Protocol: The effect of various “Generally Regarded As Safe” (GRAS) permeation enhancers was measured in a MatTek cell model. Three GRAS permeation enhancers (EDTA, ethanol, Tween 80) were evaluated individually or in combination with one another. Sorbitol was used as a tonicifier to adjust the osmolarity of formulations to 220 mOsm/kg whenever applicable. The formulation pH was adjusted to 4. The permeation enhancer combination of 45 mg/ml M-β-CD, 1 mg/ml DDPC, and 1 mg/ml EDTA at pH 4.5 served as the positive control. The formulation contains sorbitol only was used as the negative control. Each formulation is evaluated in the presence and absence of preservative. For all formulations, sodium benzoate is used as the preservative. […]
# as §3
# The amount of cell death is assayed by measuring the loss of lactate dehydrogenase (LDH) from the cells using a CytoTox 96 Cytoxicity Assay Kit (Promega Corp., Madison, Wis.). LDH analysis of the apical media is evaluated. […] Following incubation, 50 μl of stop solution is added to each well and the plates read on an optical density plate reader at 490 nm.
# [7] = system: normal, human-derived tracheal/bronchial epithelial cells (EpiAirway™ Tissue Model); assay: Transepithelial electrical resistance (TER) in MatTek EpiAirway tissue model; format: cell-based; settings: 100 μl formulation on apical surface, 1 h at 37° C., TER before and after
# Protocol: The effect of various “Generally Regarded As Safe” (GRAS) permeation enhancers was measured in a MatTek cell model. Three GRAS permeation enhancers (EDTA, ethanol, Tween 80) were evaluated individually or in combination with one another. Sorbitol was used as a tonicifier to adjust the osmolarity of formulations to 220 mOsm/kg whenever applicable. The formulation pH was adjusted to 4. The permeation enhancer combination of 45 mg/ml M-β-CD, 1 mg/ml DDPC, and 1 mg/ml EDTA at pH 4.5 served as the positive control. The formulation contains sorbitol only was used as the negative control. Each formulation is evaluated in the presence and absence of preservative. […]
# as §3
# TER measurements are accomplished using the Endohm-12 Tissue Resistance Measurement Chamber connected to the EVOM Epithelial Volt-ohmmeter (World Precision Instruments, Sarasota, Fla.) with the electrode leads. […] The background resistance is measured with 1.5 ml Media in the Endohm tissue chamber and 300 μl Media in the blank insert. […] Resistance is expressed as (resistance measured−blank)×0.6 cm^2. […]
# [8] = anesthetized rats, cited from earlier work
compound,measurement,setting,value
2-alkyl-4-hydroxyquinolines [pyo compound],concentration producing ciliostasis / inhibiting ciliary motility,ciliary motility,50 µg/mL
"CC[C@H](C)[C@H](NC(=O)[C@H](CCC(=O)O)NC(=O)[C@H](CO)NC(=O)[C@@H](NC(=O)[C@@H](N)CO)C(C)C)C(=O)N[C@@H](CCC(N)=O)C(=O)N[C@@H](CC(C)C)C(=O)N[C@@H](CCSC)C(=O)N[C@@H](Cc1cnc[nH]1)C(=O)N[C@@H](CC(N)=O)C(=O)N[C@@H](CC(C)C)C(=O)NCC(=O)N[C@@H](CCCCN)C(=O)N[C@@H](Cc1cnc[nH]1)C(=O)N[C@@H](CC(C)C)C(=O)N[C@@H](CC(N)=O)C(=O)N[C@@H](CO)C(=O)N[C@@H](CCSC)C(=O)N[C@@H](CCC(=O)O)C(=O)N[C@@H](CCCN=C(N)N)C(=O)N[C@H](C(=O)N[C@@H](CCC(=O)O)C(=O)N[C@@H](Cc1c[nH]c2ccccc12)C(=O)N[C@@H](CC(C)C)C(=O)N[C@@H](CCCN=C(N)N)C(=O)N[C@@H](CCCCN)C(=O)N[C@@H](CCCCN)C(=O)N[C@@H](CC(C)C)C(=O)N[C@@H](CCC(N)=O)C(=O)N[C@@H](CC(=O)O)C(=O)N[C@H](C(=O)N[C@@H](Cc1cnc[nH]1)C(=O)N[C@@H](CC(N)=O)C(=O)N[C@@H](Cc1ccccc1)C(=O)O)C(C)C)C(C)C [Teriparatide, teriparatide]",success rates in bone marrow transplant patients,[1],improves success rates
same,number of functional HSCs and survival after bone marrow transplantation,hematopoietic stem cells,increases the number of functional HSCs and survival after bone marrow transplantation
same,impact of preservative on Teriparatide permeation,[2],no significant impact
same,type II collagen production,"Human chondrocytes; 20 μg of PTH, citrate buffer or with permeation enhancers, 12 days",did not induce a substantial production of type II collagen
same,type II collagen production,"Human chondrocytes; high concentration of PTH (200 μg) in a simple formulation, 12 days, listed as PTH",a significant increase in type II collagen was observed; also recorded: modest amounts of type II collagen production
same,type II collagen production,"Human chondrocytes; high concentration of PTH in the presence of permeation enhancers, 12 days, listed as PTH",essentially no production of type II collagen; also recorded: did not induce any cartilage growth
same,chondrocyte proliferation,[3],does not promote growth of chondrocytes
Phaseolus vulgaris hemagglutinin,oral bioavailability,[4],more than 10%
Triton X,cell viability (MTT assay),[5],significant reduction of cell viability
same,cytotoxicity (LDH assay),[6],significant cytotoxicity
same,TER reduction,[7],significant TER reduction
"calcitonin (CGNLSTCMLGTYTQDFNKFHTFPQTAIGVGAP; ends and bridges not checked; cysteine pairing not given here; UniProt P01258 85-116, looked up)",type II collagen production,Human chondrocytes; 20 μg or 200 μg calcitonin,no effect
human growth hormone,nasal bioavailability,[8]; with N-acetyl-L-cysteine (ACS),12.2%
same,nasal bioavailability,[8]; without N-acetyl-L-cysteine,7.5%
insulin-like growth factor I [IGF-I],type II collagen production,"Human chondrocytes; 5 μg IGF-I, positive control",greater than 1.2 pg per culture
